{"source": "paper PMC7954579", "about": "(Cancer chemotherapy and pharmacology, 2020)", "key": {"[1]": {"details": "twice-weekly schedule, monotherapy; cited from earlier work"}, "[2]": {"system": "colorectal cancer cell line", "test": "In vitro combination study in a colorectal cancer cell line", "type": "cell-based", "details": "Supplementary Fig. 1A"}, "CDKs 1,2,4,5, and 9": {"system": "CDKs 1,2,4,5, and 9", "details": "read-out: IC50 range; cited from earlier work"}, "[3]": {"details": "IV, days 1, 4, 8, 11 of 21-day cycle, with onalespib 80 mg/m^2 (DL2)"}, "[4]": {"test": "Plasma pharmacokinetics in patients", "type": "in vivo, human", "details": "for half-life: t1/2,z"}, "[5]": {"details": "All dose levels, C1D1, AT7519 after onalespib, n = 23, geometric mean"}, "[6]": {"details": "All dose levels, C1D11, AT7519 after onalespib, n = 15, geometric mean"}, "[7]": {"details": "DL1, C1D1, AT7519 21 mg/m^2 IV after onalespib 40 mg/m^2, n = 4, geometric mean"}, "[8]": {"details": "DL1, C1D11, AT7519 21 mg/m^2 IV after onalespib 40 mg/m^2, n = 2, geometric mean"}, "[9]": {"details": "DL2, C1D1, AT7519 21 mg/m^2 IV after onalespib 80 mg/m^2, n = 15, geometric mean"}, "[10]": {"details": "DL2, C1D11, AT7519 21 mg/m^2 IV after onalespib 80 mg/m^2, n = 11, geometric mean"}, "[11]": {"details": "DL3, C1D1, AT7519 27 mg/m^2 IV after onalespib 80 mg/m^2, n = 4, geometric mean"}, "[12]": {"details": "DL3, C1D11, AT7519 27 mg/m^2 IV after onalespib 80 mg/m^2, n = 2, geometric mean"}, "[13]": {"details": "human, plasma, iv, DL1, C1D1, AT7519 21 mg/m^2 IV after onalespib 40 mg/m^2, n = 4, geometric mean"}, "[14]": {"details": "human, plasma, iv, DL1, C1D11, AT7519 21 mg/m^2 IV after onalespib 40 mg/m^2, n = 2, geometric mean"}, "[15]": {"details": "human, plasma, iv, DL2, C1D1, AT7519 21 mg/m^2 IV after onalespib 80 mg/m^2, n = 15, geometric mean"}, "[16]": {"details": "human, plasma, iv, DL2, C1D11, AT7519 21 mg/m^2 IV after onalespib 80 mg/m^2, n = 11, geometric mean"}, "[17]": {"details": "human, plasma, iv, DL3, C1D1, AT7519 27 mg/m^2 IV after onalespib 80 mg/m^2, n = 4, geometric mean"}, "[18]": {"details": "human, plasma, iv, DL3, C1D11, AT7519 27 mg/m^2 IV after onalespib 80 mg/m^2, n = 2, geometric mean"}}, "note": "“And” between values parts separate entries of the source, which are not always exact repeats. Equal entries are not always repeated."}
{"smiles": "O=C(NC1CCNCC1)c1n[nH]cc1NC(=O)c1c(Cl)cccc1Cl", "note": "[AT7519, N-(4-piperidinyl)-4-(2,6-dichlorobenzoylamino)-1H-pyrazole-3-car-boxamide]", "values": [{"measurement": "RP2D as individual agent", "setting": "[1]", "value": 27, "unit": "mg/m^2"}, {"measurement": "Effect on onalespib-induced HSP70 upregulation", "setting": "[2]", "value": "dose-dependent inhibition of onalespib-induced HSP70 upregulation"}, {"measurement": "IC50", "setting": "CDKs 1,2,4,5, and 9", "value": "11 to 220", "unit": "nM"}, {"measurement": "Maximally tolerated dose (MTD) of AT7519 in the combination", "setting": "[3]", "value": 21, "unit": "mg/m^2"}, {"measurement": "CL", "setting": "[4]; [5]", "value": 9.97, "unit": "L/h/m^2"}, {"measurement": "Vz", "setting": "[4]; [5]", "value": 144.3, "unit": "L/m^2"}, {"measurement": "CL", "setting": "[4]; [6]", "value": 8.93, "unit": "L/h/m^2"}, {"measurement": "Vz", "setting": "[4]; [6]", "value": 135.9, "unit": "L/m^2"}, {"measurement": "CL", "setting": "[4]; [7]", "value": 13.6, "unit": "L/h/m^2"}, {"measurement": "Vz", "setting": "[4]; [7]", "value": 146.6, "unit": "L/m^2"}, {"measurement": "CL", "setting": "[4]; [8]", "value": 9.98, "unit": "L/h/m^2"}, {"measurement": "Vz", "setting": "[4]; [8]", "value": 155.9, "unit": "L/m^2"}, {"measurement": "CL", "setting": "[4]; [9]", "value": "9.1 L/h/m^2 and 9.13 L/h/m^2"}, {"measurement": "Cmax", "setting": "[4]; [9]", "value": 459.3, "unit": "ng/mL"}, {"measurement": "Vz", "setting": "[4]; [9]", "value": 146.3, "unit": "L/m^2"}, {"measurement": "CL", "setting": "[4]; [10]", "value": "8.6 L/h/m^2 and 8.58 L/h/m^2"}, {"measurement": "Cmax", "setting": "[4]; [10]", "value": 508.7, "unit": "ng/mL"}, {"measurement": "Vz", "setting": "[4]; [10]", "value": 132.6, "unit": "L/m^2"}, {"measurement": "CL", "setting": "[4]; [11]", "value": 10.1, "unit": "L/h/m^2"}, {"measurement": "Vz", "setting": "[4]; [11]", "value": 134.7, "unit": "L/m^2"}, {"measurement": "CL", "setting": "[4]; [12]", "value": 10.0, "unit": "L/h/m^2"}, {"measurement": "Vz", "setting": "[4]; [12]", "value": 135.5, "unit": "L/m^2"}, {"measurement": "AUC", "setting": "[4]; [13]", "value": 1540, "unit": "ng·h/mL"}, {"measurement": "AUC", "setting": "[4]; [14]", "value": 2100, "unit": "ng·h/mL"}, {"measurement": "AUC", "setting": "[4]; [15]", "value": 2300, "unit": "ng·h/mL"}, {"measurement": "AUC", "setting": "[4]; [16]", "value": 2450, "unit": "ng·h/mL"}, {"measurement": "AUC", "setting": "[4]; [17]", "value": 2660, "unit": "ng·h/mL"}, {"measurement": "AUC", "setting": "[4]; [18]", "value": 2700, "unit": "ng·h/mL"}, {"measurement": "Cmax", "setting": "[4]; human, plasma, iv, Cmax, DL1, C1D1, AT7519 21 mg/m^2 IV after onalespib 40 mg/m^2, n = 4, geometric mean", "value": 463, "unit": "ng/mL"}, {"measurement": "Cmax", "setting": "[4]; human, plasma, iv, Cmax, DL1, C1D11, AT7519 21 mg/m^2 IV after onalespib 40 mg/m^2, n = 2, geometric mean", "value": 486, "unit": "ng/mL"}, {"measurement": "Cmax", "setting": "[4]; human, plasma, iv, Cmax, DL2, C1D1, AT7519 21 mg/m^2 IV after onalespib 80 mg/m^2, n = 15, geometric mean", "value": 459, "unit": "ng/mL"}, {"measurement": "Cmax", "setting": "[4]; human, plasma, iv, Cmax, DL2, C1D11, AT7519 21 mg/m^2 IV after onalespib 80 mg/m^2, n = 11, geometric mean", "value": 509, "unit": "ng/mL"}, {"measurement": "Cmax", "setting": "[4]; human, plasma, iv, Cmax, DL3, C1D1, AT7519 27 mg/m^2 IV after onalespib 80 mg/m^2, n = 4, geometric mean", "value": 602, "unit": "ng/mL"}, {"measurement": "Cmax", "setting": "[4]; human, plasma, iv, Cmax, DL3, C1D11, AT7519 27 mg/m^2 IV after onalespib 80 mg/m^2, n = 2, geometric mean", "value": 581, "unit": "ng/mL"}, {"measurement": "half-life", "setting": "[4]; [13]", "value": 7.48, "unit": "h"}, {"measurement": "half-life", "setting": "[4]; [14]", "value": 10.8, "unit": "h"}, {"measurement": "half-life", "setting": "[4]; [15]", "value": 11.1, "unit": "h"}, {"measurement": "half-life", "setting": "[4]; [16]", "value": 10.7, "unit": "h"}, {"measurement": "half-life", "setting": "[4]; [17]", "value": 9.21, "unit": "h"}, {"measurement": "half-life", "setting": "[4]; [18]", "value": 9.38, "unit": "h"}]}
